Entries after “also recorded” stand apart in the source; their conditions may differ.
Assays:
[1] = test system: mouse kidney proximal tubules; assay: Hydroxyquinoline + iron induced cell death in isolated mouse kidney proximal tubules (LDH release); format: cell-based; conditions: 10 μM hydroxyquinoline and ferrous ammonium sulfate, 60 min
Protocol: Tubule preparation: 8-12 week old C57/BL6 female mice were euthanized with isoflurane. […] The cortices were then dissected and minced on an ice cold tile, then resuspended in additional Solution A for 8-10 min. of digestion at 37° C. followed by enrichment of proximal tubules using centrifugation on self-forming Percoll gradients as previously described for rabbit tubules.
Experimental procedures for isolated tubules: Tubules were suspended at 1.5-2.0 mg tubule protein/ml in a 95% air/5% CO2-gassed medium containing (in mM) 110 NaCl, 2.6 KCl, 25 NaHCO3, 2.4 KH2PO4, 1.25 CaCl2, 1.2 MgCl2, 1.2 MgSO4, 5 glucose, 4 sodium lactate, 0.3 alanine, 5 sodium butyrate, 2 glycine, and 1.0 mg/ml bovine gelatin (75 bloom) (Solution B). After precincubation for 15 min. at 37° C., then were then resuspended in fresh Solution B containing 2 mM heptanoic acid instead of sodium butyrate along with experimental compounds.
In addition, the efficacy of Fer-1, SRS11-92, and selected analogs was tested in a model of iron-induced cell death in freshly isolated mouse kidney proximal tubules that simulates major elements of rhabdomyolysis-induced acute kidney injury (FIG. 15C). Cell death in this model is known to involve oxidative lipid damage (Sogabe, et al., 1996, Park, et al., 2011); it was therefore believed that Fer-1 might be protective. 10 μM each of hydroxyquinoline and ferrous ammonium sulfate (HQ+Fe) were used to induce cell death, which was quantified by monitoring LDH release after 60 min. […] By implication, cell death in these models may involve, at least in part, the induction of lipid peroxidation and perhaps ferroptosis.

[2] = test system: rat corticostriatal brain slices, medium spiny neurons; assay: Brain slice assay for HD (httN90Q73-transfected corticostriatal slices); format: cell-based; conditions: for number of healthy medium spiny neurons (MSNs): 10 nM, 100 nM and 1 μM, four days
Protocol: 250 μm corticostriatal brain slices were prepared from postnatal day 10 CD Sprague-Dawley rat pups (Charles River) as previously described (Hoffstrom et al., 2010). Brain slice explants were placed in interface culture in 6-well plates using culture medium containing 15% heat-inactivated horse serum, 10 mM KCl, 10 mM HEPES, 100 U/ml penicillin/streptomycin, 1 mM MEM sodium pyruvate, and 1 mM L-glutamine in Neurobasal A (Invitrogen) and maintained in humidified incubators under 5% CO2 at 32 deg. C. A custom-modified biolistic device (Helios Gene Gun; Bio-Rad) was used to transfect the brain slices with a human htt exon-1 expression construct containing a 73 CAG repeat (“HttN90Q73”) in the gWiz backbone (Genlantis) together with a YFP expression construct to visualize transfected neurons. Control brain slices were transfected with gWiz blank vector and YFP at the equivalent DNA amounts. After 4 days of incubation, MSNs were identified by their location within the striatum and by their characteristic dendritic morphology and scored as healthy if expressing bright and continuous YFP labeling throughout, normal-sized cell bodies, and >2 primary dendrites >2 cell bodies long, as previously described^21. Data were expressed as mean numbers of healthy MSNs per striatal region in each brain slice, with statistical significance tested by ANOVA followed by Dunnett's post hoc comparison test at the 0.05 confidence level. […]
Fer-1 attenuates lipid peroxidation and ferroptosis in cancer cells treated with small molecules that block cystine import or glutathione production, as well as cell death in rat organotypic hippocampal brain slices treated with toxic concentrations of glutamate, which also blocks cystine import (Dixon, et al., 2012). […] Four days later, the number of healthy medium spiny neurons (MSNs) was quantified, as previously described (Varma, et al., 2011, Hoffstrom, et al., 2010).

CCOC(=O)c1ccc(NC2CCCCC2)c(N)c1 [SRS8-28 (Fer-1), ethyl 3-amino-4-(cyclohexylamino)benzoate]
HQ+Fe induced lethality (LDH release) [1]: prevented lethality; also recorded: protective | number of healthy medium spiny neurons (MSNs) [2]: significant increase in the number of healthy MSNs | number of healthy MSNs versus controls ([2]; 1 μM): statistically indistinguishable from both the YFP (no htt) control and the control inhibitor combination

CCOC(=O)c1ccc(NC2CCCCC2)c(NCc2ccccc2)c1 [SRS11-92, ethyl 3-(benzylamino)-4-(cyclohexylamino)benzoate]
HQ+Fe induced lethality (LDH release) [1]: prevented lethality | number of healthy medium spiny neurons (MSNs) [2]: significant increase in the number of healthy MSNs

From US11192849B2, “Compounds, compositions, and methods for modulating ferroptosis and treating excitotoxic disorders” (THE TRUSTEES OF COLUMBIA UNIVERSITY IN THE CITY OF NEW YORK, priority 2013, dated 2021)
